1 compound from patent US20090123555A1, “Stimulateable Polymer Particles Exhibiting Reactive Functions, Method for the Production and the Use Thereof” (CENTRE NATIONAL DE LA RECHER CHE SCIENTIFIQUE, priority 2004, published 2009) can be followed below.

Structures are written as SMILES.

A short description of the series: Release of the active ingredient from the particle by lowering of the pH, followed by UV-visible spectrometry. In kind it is physicochemical. The text has this: Once the particle was synthesised we verified by UV-visible spectrometry the possibility of releasing the medicament by simple lowering of the pH.

As for `COc1ccc2c(c1)c(CC(=O)O)c(C)n2C(=O)c1ccc(Cl)cc1` [indomethacin], the “release of the medicament by simple lowering of the pH” value (lowering of the pH, release from the particle) was “progressive and controlled release”. The “indomethacin salted out (released) from the particle” value (pH equal to 3, in 48 hours, indomethacin covalently bonded inside the particle (NB-PCL-POE-OMe stabilised latex)) was “more than 85%”.
